Assay results published in ChEMBL document CHEMBL5712916, “Frequent upregulation of G9a promotes RelB-dependent proliferation and survival in multiple myeloma” (Exp Hematol Oncol, 2020).
pIC50: −log10 of the molar value. Activity calls are given as the source filed them. The rule behind the calls is not given here.

Key:
[1] = system: KMS-12-BM; experiment: Cytotoxicity against human KMS-12-BM cells assessed as decrease in number of colonies incubated for 14 days by colony formation assay; format: functional, cell-based; settings: time 14.0 day
[2] = molecular target: T1, Histone-lysine N-methyltransferase EHMT2 (Homo sapiens) (UniProt Q96KQ7); experiment: Inhibition of G9a in human JJN-3 cells assessed as decrease in p52 expression at cytotoxic IC50 measured after 72 hrs by Western blot analysis; format: cell-based
T1 sequence (whole entry): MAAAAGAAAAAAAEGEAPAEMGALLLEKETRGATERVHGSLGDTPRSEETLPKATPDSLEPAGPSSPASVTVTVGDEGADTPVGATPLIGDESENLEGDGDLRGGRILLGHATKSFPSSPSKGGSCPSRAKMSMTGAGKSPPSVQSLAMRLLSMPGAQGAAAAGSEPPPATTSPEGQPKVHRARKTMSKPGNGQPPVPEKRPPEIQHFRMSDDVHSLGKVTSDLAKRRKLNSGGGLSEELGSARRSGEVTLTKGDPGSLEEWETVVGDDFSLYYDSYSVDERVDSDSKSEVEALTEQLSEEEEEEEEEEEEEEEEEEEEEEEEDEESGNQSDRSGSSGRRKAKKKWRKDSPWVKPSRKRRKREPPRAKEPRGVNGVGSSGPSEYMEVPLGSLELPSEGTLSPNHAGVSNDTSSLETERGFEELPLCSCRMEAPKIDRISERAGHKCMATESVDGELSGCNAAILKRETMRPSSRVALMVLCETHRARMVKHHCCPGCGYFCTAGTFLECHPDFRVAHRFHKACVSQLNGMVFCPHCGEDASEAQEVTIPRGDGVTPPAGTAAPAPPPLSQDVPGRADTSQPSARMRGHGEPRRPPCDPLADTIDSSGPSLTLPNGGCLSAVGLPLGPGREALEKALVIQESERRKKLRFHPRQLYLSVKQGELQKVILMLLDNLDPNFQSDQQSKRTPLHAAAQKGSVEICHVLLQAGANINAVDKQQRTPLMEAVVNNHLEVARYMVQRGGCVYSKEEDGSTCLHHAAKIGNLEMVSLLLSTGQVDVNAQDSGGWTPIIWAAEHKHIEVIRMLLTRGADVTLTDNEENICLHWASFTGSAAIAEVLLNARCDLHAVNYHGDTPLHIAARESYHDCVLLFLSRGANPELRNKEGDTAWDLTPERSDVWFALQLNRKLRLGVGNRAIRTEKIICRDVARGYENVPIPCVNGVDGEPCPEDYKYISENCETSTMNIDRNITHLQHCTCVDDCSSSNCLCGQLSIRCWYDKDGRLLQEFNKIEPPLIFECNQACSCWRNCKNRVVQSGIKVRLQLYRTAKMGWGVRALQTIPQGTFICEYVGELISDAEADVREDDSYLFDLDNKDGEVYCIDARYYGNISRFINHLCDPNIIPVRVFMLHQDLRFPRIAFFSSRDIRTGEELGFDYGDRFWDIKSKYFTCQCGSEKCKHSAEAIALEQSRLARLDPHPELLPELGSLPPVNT

[3] = system: KMS-12-BM; experiment: Cytotoxicity against human KMS-12-BM cells expressing shNT assessed as reduction in cell viability measured after 72 hrs by Celltiter-glo luminescent cell viability assay; format: functional, cell-based
[4] = system: KMS-12-BM; experiment: Cytotoxicity against human KMS-12-BM cells expressing shG9a assessed as reduction in cell viability measured after 72 hrs by Celltiter-glo luminescent cell viability assay; format: functional, cell-based
[5] = system: JJN-3; experiment: Cytotoxicity against human JJN-3 cells expressing shNT assessed as reduction in cell viability measured after 72 hrs by Celltiter-glo luminescent cell viability assay; format: functional, cell-based; settings: JJN-3, 72 h
[6] = Cytotoxicity against human CD38-positive cells assessed as reduction in cell viability measured after 72 hrs by Celltiter-glo luminescent cell viability assay; format: toxicity, cell-based
[7] = system: RPMI-8226; experiment: Cytotoxicity against human RPMI-8226 cells assessed as reduction in cell viability measured after 72 hrs by MTS assay; format: functional, cell-based; settings: RPMI-8226, 72 h
[8] = system: KMS-12-BM; experiment: Effect on G9a expression in human KMS-12-BM cells at cytotoxic IC50 measured after 72 hrs by Western blot analysis; format: functional, cell-based
[9] = system: JJN-3; experiment: Cytotoxicity against human JJN-3 cells assessed as decrease in number of colonies incubated for 14 days by colony formation assay; format: functional, cell-based; settings: time 14.0 day
[10] = system: JJN-3; experiment: Cytotoxicity against human JJN-3 cells assessed as reduction in cell viability measured after 72 hrs by Celltiter-glo luminescent cell viability assay; format: functional, cell-based; settings: JJN-3, 72 h
[11] = Cytotoxicity against human MSC cells assessed as reduction in cell viability measured after 72 hrs by MTS assay; format: toxicity, cell-based
[12] = molecular target: T1, Histone-lysine N-methyltransferase EHMT2 (Homo sapiens); experiment: Inhibition of G9a in human JJN-3 cells assessed as increase in Bim mRNA expression at cytotoxic IC50 measured after 72 hrs by qRT-PCR analysis; format: cell-based
[13] = system: KMS-12-BM; experiment: Cytotoxicity against human KMS-12-BM cells assessed as reduction in cell viability measured after 72 hrs by MTS assay; format: functional, cell-based
[14] = system: JJN-3; experiment: Cytotoxicity against human JJN-3 cells assessed as reduction in cell viability measured after 72 hrs by MTS assay; format: functional, cell-based; settings: JJN-3, 72 h
[15] = molecular target: T1, Histone-lysine N-methyltransferase EHMT2 (Homo sapiens); experiment: Inhibition of G9a in human JJN-3 cells assessed as reduction in RelB mRNA expression at cytotoxic IC50 measured after 72 hrs by qRT-PCR analysis; format: cell-based
[16] = system: KMS-12-BM; experiment: Cytotoxicity against human KMS-12-BM cells assessed as reduction in colony size incubated for 14 days by colony formation assay; format: functional, cell-based; settings: time 14.0 day
[17] = molecular target: T1, Histone-lysine N-methyltransferase EHMT2 (Homo sapiens); experiment: Inhibition of G9a in human KMS-12-BM cells assessed as reduction in H3K9me2 level at cytotoxic IC50 measured after 72 hrs by Western blot analysis; format: cell-based
[18] = system: JJN-3; experiment: Cytotoxicity against human JJN-3 cells expressing shG9a assessed as reduction in cell viability measured after 72 hrs by Celltiter-glo luminescent cell viability assay; format: functional, cell-based; settings: JJN-3, 72 h
[19] = Cytotoxicity against human Bortezomib-resistant RPMI-8226 cells assessed as reduction in cell viability measured after 72 hrs by Celltiter-glo luminescent cell viability assay; format: functional, cell-based; settings: Bortezomib-resistant RPMI-8226, 72 h
[20] = molecular target: T1, Histone-lysine N-methyltransferase EHMT2 (Homo sapiens); experiment: Inhibition of G9a in human JJN-3 cells assessed as decrease in p100 expression at cytotoxic IC50 measured after 72 hrs by Western blot analysis; format: cell-based
[21] = Cytotoxicity against human Bortezomib-resistant RPMI-8226 cells assessed as reduction in cell viability measured after 72 hrs by MTS assay; format: functional, cell-based; settings: Bortezomib-resistant RPMI-8226, 72 h
[22] = system: RPMI-8226; experiment: Cytotoxicity against human RPMI-8226 cells assessed as reduction in cell viability measured after 72 hrs by Celltiter-glo luminescent cell viability assay; format: functional, cell-based; settings: RPMI-8226, 72 h
[23] = molecular target: T1, Histone-lysine N-methyltransferase EHMT2 (Homo sapiens); experiment: Inhibition of G9a in human JJN-3 cells assessed as decrease in NFKB2 expression at cytotoxic IC50 measured after 72 hrs by Western blot analysis; format: cell-based
[24] = system: KMS-12-BM; experiment: Cytotoxicity against human KMS-12-BM cells assessed as reduction in cell viability measured after 72 hrs by Celltiter-glo luminescent cell viability assay; format: functional, cell-based
[25] = molecular target: T1, Histone-lysine N-methyltransferase EHMT2 (Homo sapiens); experiment: Inhibition of G9a in human JJN-3 cells assessed as increase in BMF mRNA expression at cytotoxic IC50 measured after 72 hrs by qRT-PCR analysis; format: cell-based
[26] = system: JJN-3; experiment: Cytotoxicity against human JJN-3 cells assessed as reduction in colony size incubated for 14 days by colony formation assay; format: functional, cell-based; settings: time 14.0 day
[27] = molecular target: Histone-lysine N-methyltransferase EZH2 (Homo sapiens, UniProt Q15910); experiment: Inhibition of EZH2 (unknown origin)
Chain of Histone-lysine N-methyltransferase EZH2 (Q15910 whole entry): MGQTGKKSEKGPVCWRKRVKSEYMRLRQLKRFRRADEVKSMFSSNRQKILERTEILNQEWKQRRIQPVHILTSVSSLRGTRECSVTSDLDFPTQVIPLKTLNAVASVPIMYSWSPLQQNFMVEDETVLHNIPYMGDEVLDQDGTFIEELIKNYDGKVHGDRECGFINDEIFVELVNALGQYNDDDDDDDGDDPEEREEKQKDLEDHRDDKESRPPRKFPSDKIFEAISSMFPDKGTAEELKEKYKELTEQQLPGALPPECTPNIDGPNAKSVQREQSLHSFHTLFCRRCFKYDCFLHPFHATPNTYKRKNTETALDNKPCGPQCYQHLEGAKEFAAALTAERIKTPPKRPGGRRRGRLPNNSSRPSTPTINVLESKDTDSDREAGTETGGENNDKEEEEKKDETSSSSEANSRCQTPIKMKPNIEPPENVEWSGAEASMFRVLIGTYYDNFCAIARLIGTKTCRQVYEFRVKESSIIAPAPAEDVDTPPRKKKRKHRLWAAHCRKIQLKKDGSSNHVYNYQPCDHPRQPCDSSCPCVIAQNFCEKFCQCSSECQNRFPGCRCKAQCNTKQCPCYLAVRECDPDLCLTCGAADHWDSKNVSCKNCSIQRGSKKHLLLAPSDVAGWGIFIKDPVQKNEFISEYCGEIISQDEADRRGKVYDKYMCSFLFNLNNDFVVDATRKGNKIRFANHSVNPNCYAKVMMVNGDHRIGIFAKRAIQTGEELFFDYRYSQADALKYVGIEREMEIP

Q: Which Activity [1] does the source give for `COc1cc2c(NC3CCN(C(C)C)CC3)nc(N3CCC(F)(F)CC3)nc2cc1OCCCN1CCCC1` here?
A: The Activity was “Active”.

Q: What about the inhibition [2] of the same compound?
A: Its inhibition is “Active”.

Q: What about the pIC50 [3] of the same compound?
A: The pIC50 was 4.62.

Q: What about the pIC50 [4] of the same compound?
A: The pIC50 was 4.23.

Q: And the pIC50 [5]?
A: Its pIC50 is 5.17.

Q: What about the IC50 at 72 h [6] of the same compound?
A: Its IC50 at 72 h is 6.91 µM.

Q: What about the pIC50 [7] of the same compound?
A: Its pIC50 is 4.57.

Q: What about the Activity [8] of the same compound?
A: Its Activity is “inactive”.

Q: What about the Activity [9] of the same compound?
A: The Activity was “Active”.

Q: And the pIC50 [10]?
A: Its pIC50 is 5.23.

Q: What about the IC50 at 72 h [11] of the same compound?
A: The IC50 at 72 h was 36.9 µM.

Q: And the inhibition [12]?
A: Its inhibition is “Active”.

Q: And the pIC50 [13]?
A: Its pIC50 is 4.69.

Q: And the pIC50 [14]?
A: Its pIC50 is 4.72.

Q: And the inhibition [15]?
A: The inhibition was “Active”.

Q: And the Activity [16]?
A: The Activity was “Active”.

Q: What about the inhibition [17] of the same compound?
A: Its inhibition is “Active”.

Q: What about the pIC50 [18] of the same compound?
A: The pIC50 was 4.75.

Q: What about the pIC50 [19] of the same compound?
A: The pIC50 was 4.60.

Q: What about the inhibition [20] of the same compound?
A: Its inhibition is “Active”.

Q: And the pIC50 [21]?
A: Its pIC50 is 4.90.

Q: What about the pIC50 [22] of the same compound?
A: The pIC50 was 4.66.

Q: And the inhibition [23]?
A: The inhibition was “Active”.

Q: What about the pIC50 [24] of the same compound?
A: The pIC50 was 4.97.

Q: And the inhibition [25]?
A: Its inhibition is “Active”.

Q: And the Activity [26]?
A: Its Activity is “Active”.

Q: What about the pIC50 [27] of the same compound?
A: Its pIC50 is 5.30.
